In patent US20140350029A1 (DAINIPPON SUMITOMO PHARMA CO., LTD., priority 2011, published 2014):

Legend:
Dopamine D1 receptor = biological target: T1, Dopamine D1 receptor (Rattus norvegicus, UniProt P18901); assay: In vitro receptor binding, dopamine D1 (rat); settings: read-out: Binding Affinities (Ki; nM) Dopamine D1
T1 construct: Membranes from male Wistar rat brain tissues; from tissue; host or cells: male Wistar rat brain
Description: (§1) In vitro binding studies were carried out according to the procedures well-established in the art. Membranes from male Wistar rat brain tissues or cells expressing cloned human receptors were prepared under assay conditions summarized in Ishibashi, T. et al. (Journal of Pharmacology and Experimental Therapeutics (2010)). Functional assays were carried out to analyze the binding affinity and effect on receptor function for dopamine D1-D4 receptor subtypes, serotonin 5-HT1A, 5-HT2A, 5-HT2C, 5-HT6, 5-HT7, norepinephrine α1, α2A, α2C, histamine H1 receptors, and muscarinic M1 receptors.

Dopamine D3 receptor = biological target: T2, Dopamine D3 receptor (Homo sapiens, UniProt P35462); assay: In vitro receptor binding, dopamine D3; settings: cloned cells expressing human receptors; read-out: Binding Affinities (Ki; nM) Dopamine D3
T2 construct: expressed in transfected cells

Histamine H1 receptor [1] = biological target: Histamine H1 receptor (Cavia porcellus, UniProt P31389); assay: In vitro receptor binding, histamine H1 (guinea pig)
dopamine D2 receptor = dopamine D2 receptor (Homo sapiens, UniProt P14416); settings: background statement; cited from earlier work
[2] = biological target: T3, Norepinephrine α2C receptor (Homo sapiens, UniProt P18825); assay: In vitro receptor binding, norepinephrine α2C
T3 sequence (P18825 1-462): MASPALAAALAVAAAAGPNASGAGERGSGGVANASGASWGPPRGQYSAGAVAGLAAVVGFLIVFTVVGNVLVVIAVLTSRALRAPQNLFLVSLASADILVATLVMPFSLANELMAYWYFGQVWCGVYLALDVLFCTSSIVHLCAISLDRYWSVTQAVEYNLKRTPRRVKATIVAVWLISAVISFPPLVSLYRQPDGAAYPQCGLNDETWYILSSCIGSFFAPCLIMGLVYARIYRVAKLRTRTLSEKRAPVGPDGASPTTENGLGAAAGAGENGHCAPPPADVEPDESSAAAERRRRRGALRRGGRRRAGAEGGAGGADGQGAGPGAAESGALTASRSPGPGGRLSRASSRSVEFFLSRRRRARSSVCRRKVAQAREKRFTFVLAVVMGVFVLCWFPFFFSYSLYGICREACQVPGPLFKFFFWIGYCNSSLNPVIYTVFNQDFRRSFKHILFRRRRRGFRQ

[3] = biological target: Norepinephrine α1 receptor; assay: In vitro receptor binding, norepinephrine α1 (rat)
[4] = test system: patients with schizophrenia; assay: PANSS and BPRS scores, 1-year lurasidone therapy; type: in vivo, human; settings: 40-120 mg/day, over a 1-year period
[5] = biological target: T4, Serotonin 5-HT2c receptor (Sus scrofa, UniProt K7GSR7); type: binding, porcine
T4 sequence (K7GSR7 1-457): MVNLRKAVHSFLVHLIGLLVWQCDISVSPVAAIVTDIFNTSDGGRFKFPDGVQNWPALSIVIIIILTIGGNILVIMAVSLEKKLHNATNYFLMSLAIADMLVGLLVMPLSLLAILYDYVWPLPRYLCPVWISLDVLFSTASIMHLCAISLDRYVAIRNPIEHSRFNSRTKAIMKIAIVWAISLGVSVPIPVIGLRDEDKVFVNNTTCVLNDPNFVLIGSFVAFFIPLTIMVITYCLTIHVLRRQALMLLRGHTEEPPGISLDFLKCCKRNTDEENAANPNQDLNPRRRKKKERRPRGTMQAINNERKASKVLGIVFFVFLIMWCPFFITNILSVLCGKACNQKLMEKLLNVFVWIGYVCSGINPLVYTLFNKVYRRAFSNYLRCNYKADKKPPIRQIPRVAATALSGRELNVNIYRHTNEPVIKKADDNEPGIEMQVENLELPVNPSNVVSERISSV
Description: as §1

[6] = test system: patients with bipolar I depression; assay: Lurasidone monotherapy for bipolar I depression, 6-week study, efficacy; type: in vivo, human; settings: for MADRS effect size vs PBO / MADRS score reduction (change from baseline, MMRM) / reduction in CGI-BP-S depression scores (MMRM): week 6
Description: Changes from DB baseline (DB-BL) to week 6 in MADRS and CGI-bipolar severity (CGI-BP-S) depression scores, respectively, were analyzed using mixed model for repeated measures (MMRM). Additional secondary outcome measures, e.g., Sheehan Disability Scale (SDS), were analyzed using analysis of covariance, last observation carried forward (ANCOVA-LOCF), or logistic regression.

[7] = biological target: T5, serotonin 5-HT1A receptor (Homo sapiens, UniProt P08908); assay: Functional assay, effect on receptor function; type: biochemical
T5 sequence (P08908 1-422): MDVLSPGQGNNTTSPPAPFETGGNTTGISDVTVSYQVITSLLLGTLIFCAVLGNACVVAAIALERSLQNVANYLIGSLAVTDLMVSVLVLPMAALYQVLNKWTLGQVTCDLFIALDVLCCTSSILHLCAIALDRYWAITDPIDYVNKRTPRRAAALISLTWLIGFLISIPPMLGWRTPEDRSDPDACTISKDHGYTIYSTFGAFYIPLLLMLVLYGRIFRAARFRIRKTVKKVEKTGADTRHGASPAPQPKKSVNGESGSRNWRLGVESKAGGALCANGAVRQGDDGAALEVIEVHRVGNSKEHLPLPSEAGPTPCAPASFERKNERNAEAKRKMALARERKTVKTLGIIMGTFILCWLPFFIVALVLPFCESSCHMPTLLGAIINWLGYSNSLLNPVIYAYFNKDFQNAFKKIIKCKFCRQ
Description: as §1

histamine H1 receptor [8] = biological target: histamine H1 receptor (Homo sapiens, UniProt P35367); settings: background statement; cited from earlier work
5-HT2A receptor = 5-HT2A receptor (Homo sapiens, UniProt P28223); settings: background statement; cited from earlier work
5-HT2A receptor, sequence (P28223 whole entry): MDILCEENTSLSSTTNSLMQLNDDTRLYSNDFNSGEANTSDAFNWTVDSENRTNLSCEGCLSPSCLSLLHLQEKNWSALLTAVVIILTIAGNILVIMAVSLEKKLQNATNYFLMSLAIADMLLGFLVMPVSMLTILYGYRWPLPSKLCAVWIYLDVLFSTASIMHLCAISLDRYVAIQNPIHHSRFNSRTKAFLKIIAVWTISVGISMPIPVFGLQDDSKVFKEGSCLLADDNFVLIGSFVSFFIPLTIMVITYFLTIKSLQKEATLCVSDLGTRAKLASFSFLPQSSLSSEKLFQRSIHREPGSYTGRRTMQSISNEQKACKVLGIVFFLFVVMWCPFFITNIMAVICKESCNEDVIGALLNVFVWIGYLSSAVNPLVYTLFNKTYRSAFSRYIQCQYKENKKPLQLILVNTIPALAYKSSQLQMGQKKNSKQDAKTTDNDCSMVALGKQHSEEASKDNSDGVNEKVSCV

Histamine H1 receptor, sequence (P31389 whole entry): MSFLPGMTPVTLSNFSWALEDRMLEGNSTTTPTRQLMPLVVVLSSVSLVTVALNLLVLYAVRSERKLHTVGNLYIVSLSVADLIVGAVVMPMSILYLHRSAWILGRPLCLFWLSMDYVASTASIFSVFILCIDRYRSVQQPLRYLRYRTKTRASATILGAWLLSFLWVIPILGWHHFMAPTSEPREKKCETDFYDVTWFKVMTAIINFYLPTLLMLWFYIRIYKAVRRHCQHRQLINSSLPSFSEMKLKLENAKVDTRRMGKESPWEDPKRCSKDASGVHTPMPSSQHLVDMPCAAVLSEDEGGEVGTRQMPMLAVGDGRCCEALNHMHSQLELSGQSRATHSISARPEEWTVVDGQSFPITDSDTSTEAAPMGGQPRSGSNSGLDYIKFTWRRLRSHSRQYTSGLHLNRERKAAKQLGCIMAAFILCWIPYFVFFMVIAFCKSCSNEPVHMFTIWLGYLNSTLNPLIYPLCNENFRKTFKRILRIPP
T2 sequence (P35462 whole entry): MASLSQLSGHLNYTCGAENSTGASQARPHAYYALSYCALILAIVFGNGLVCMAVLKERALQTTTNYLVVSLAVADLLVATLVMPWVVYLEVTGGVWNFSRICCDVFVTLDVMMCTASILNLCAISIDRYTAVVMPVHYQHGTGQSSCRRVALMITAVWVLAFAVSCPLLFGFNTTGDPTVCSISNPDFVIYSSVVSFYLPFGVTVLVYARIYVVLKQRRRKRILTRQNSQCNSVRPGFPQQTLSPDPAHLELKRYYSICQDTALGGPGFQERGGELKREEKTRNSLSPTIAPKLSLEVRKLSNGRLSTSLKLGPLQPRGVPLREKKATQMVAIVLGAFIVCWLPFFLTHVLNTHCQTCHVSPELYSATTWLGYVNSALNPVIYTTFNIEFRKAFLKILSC
T1 sequence (P18901 whole entry): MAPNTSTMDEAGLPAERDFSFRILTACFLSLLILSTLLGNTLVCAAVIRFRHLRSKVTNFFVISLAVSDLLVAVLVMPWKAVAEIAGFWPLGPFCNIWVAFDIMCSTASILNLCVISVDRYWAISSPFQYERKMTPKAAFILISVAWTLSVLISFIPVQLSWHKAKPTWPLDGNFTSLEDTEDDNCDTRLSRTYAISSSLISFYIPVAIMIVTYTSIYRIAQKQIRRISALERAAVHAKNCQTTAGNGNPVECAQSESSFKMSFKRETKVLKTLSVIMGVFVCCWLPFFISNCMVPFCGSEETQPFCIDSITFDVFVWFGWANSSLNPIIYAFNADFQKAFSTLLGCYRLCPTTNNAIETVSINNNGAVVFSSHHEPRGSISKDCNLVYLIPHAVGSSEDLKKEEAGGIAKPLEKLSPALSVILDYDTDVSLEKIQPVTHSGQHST
histamine H1 receptor, sequence (P35367 whole entry): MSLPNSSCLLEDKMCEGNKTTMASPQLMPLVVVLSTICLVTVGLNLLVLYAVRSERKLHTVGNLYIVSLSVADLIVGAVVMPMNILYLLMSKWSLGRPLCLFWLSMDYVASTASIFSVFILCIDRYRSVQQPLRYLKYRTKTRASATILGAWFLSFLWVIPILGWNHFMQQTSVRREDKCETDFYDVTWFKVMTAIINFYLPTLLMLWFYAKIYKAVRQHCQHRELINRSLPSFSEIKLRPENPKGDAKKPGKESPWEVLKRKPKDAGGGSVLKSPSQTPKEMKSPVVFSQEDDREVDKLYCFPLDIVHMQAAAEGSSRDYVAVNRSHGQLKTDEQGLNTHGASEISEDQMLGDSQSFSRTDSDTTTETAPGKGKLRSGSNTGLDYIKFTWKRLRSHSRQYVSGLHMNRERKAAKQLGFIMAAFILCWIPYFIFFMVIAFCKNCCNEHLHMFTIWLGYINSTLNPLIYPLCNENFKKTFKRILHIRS
dopamine D2 receptor, sequence (P14416 whole entry): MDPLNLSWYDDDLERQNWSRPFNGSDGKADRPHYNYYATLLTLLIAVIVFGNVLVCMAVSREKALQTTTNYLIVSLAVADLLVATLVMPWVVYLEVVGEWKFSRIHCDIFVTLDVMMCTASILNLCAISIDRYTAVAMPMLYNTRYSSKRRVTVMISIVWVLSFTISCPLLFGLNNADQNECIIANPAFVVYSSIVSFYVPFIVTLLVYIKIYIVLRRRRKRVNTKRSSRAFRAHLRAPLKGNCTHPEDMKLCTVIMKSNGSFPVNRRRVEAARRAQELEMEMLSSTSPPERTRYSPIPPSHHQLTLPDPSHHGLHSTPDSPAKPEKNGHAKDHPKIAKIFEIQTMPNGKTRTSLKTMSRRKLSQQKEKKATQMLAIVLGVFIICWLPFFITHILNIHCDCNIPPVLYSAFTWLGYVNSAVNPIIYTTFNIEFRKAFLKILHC

O=C1[C@@H]2[C@H]3CC[C@H](C3)[C@@H]2C(=O)N1C[C@@H]1CCCC[C@H]1CN1CCN(c2nsc3ccccc23)CC1 [Lurasidone] showed a Ki (Dopamine D1 receptor) of 262 nM, a Ki (Dopamine D3 receptor) of 15.7 nM and a Ki (Histamine H1 receptor [1]; guinea pig, read-out: Binding Affinities (Ki; nM) Histamine H1) greater than 1000 nM. The “binding affinity for histamine H1 receptor (in words)” value (Histamine H1 receptor [1]; summary of Table 2) was “low or negligible binding affinity”, the “reported affinity for dopamine D2 receptor” value (dopamine D2 receptor) was “high affinity” and the Ki ([2]; cloned cells expressing human receptors, read-out: Binding Affinities (Ki; nM) Norepinephrine α2C) was 10.8 nM. For the same compound, the “affinity for α2C adrenoreceptor (in words)” value ([2]; summary of Table 2) was “moderate affinity”, the Ki ([3]; rat, read-out: Binding Affinities (Ki; nM) Norepinephrine α1) was 47.9 nM and the “binding affinity for α1 adrenoreceptor (in words)” value ([3]; summary of Table 2) was “low or negligible binding affinity”. For the same compound, the “total PANSS and Brief Psychiatric Rating Scale (BPRS) scores” value [4] was “gradual and sustained improvement”, the Ki ([5]; porcine, read-out: Binding Affinities (Ki; nM) Serotonin 5-HT2c) was 415 nM and the “binding affinity for serotonin 5-HT2C receptor (in words)” value ([5]; summary of Table 2) was “low or negligible binding affinity”. For the same compound, the “Sheehan Disability Scale (SDS) vs PBO” value ([6]; both LUR20-60 and LUR80-120 groups, LOCF) was “significant improvement over PBO”, the “Responder rates (reduction in MADRS total score ≧50%)” value ([6]; lurasidone 20 to 60 mg/day) was 53% and the “MADRS effect size vs PBO” value ([6]; lurasidone 20 to 60 mg/day) was 0.51. The “MADRS score reduction (change from baseline, MMRM)” value ([6]; lurasidone 20 to 60 mg/day) was −15.4, the “reduction in CGI-BP-S depression scores (MMRM)” value ([6]; lurasidone 20 to 60 mg/day) was −1.8 and the “Responder rates (reduction in MADRS total score ≧50%)” value ([6]; lurasidone 80 to 120 mg/day) was 51%. The “MADRS effect size vs PBO” value ([6]; lurasidone 80 to 120 mg/day) was 0.51, the “MADRS score reduction (change from baseline, MMRM)” value ([6]; lurasidone 80 to 120 mg/day) was −15.4 and the “reduction in CGI-BP-S depression scores (MMRM)” value ([6]; lurasidone 80 to 120 mg/day) was −1.7. The “depressive symptoms compared to placebo” value ([6]; monotherapy, flexibly dosed at 20 to 60 mg/day or 80 to 120 mg/day) was “significantly reduced depressive symptoms”, the “effect on 5-HT1A receptor function” value [7] was “partial agonist” and the “reported affinity for histamine H1 receptor” value (histamine H1 receptor [8]) was “minimal to no affinity”. The “reported affinity for 5-HT2A receptor” value (5-HT2A receptor) was “high affinity”.
